Here are results for one compound from ChEMBL document CHEMBL5058541, “EUbOPEN Chemogenomics Library 2 (NanoBRET)” (2022).

Molecules are shown by their SMILES.

For experiment [1], the target named is T1, Protein ENL (Homo sapiens) (UniProt Q03111).
T1 sequence (whole entry): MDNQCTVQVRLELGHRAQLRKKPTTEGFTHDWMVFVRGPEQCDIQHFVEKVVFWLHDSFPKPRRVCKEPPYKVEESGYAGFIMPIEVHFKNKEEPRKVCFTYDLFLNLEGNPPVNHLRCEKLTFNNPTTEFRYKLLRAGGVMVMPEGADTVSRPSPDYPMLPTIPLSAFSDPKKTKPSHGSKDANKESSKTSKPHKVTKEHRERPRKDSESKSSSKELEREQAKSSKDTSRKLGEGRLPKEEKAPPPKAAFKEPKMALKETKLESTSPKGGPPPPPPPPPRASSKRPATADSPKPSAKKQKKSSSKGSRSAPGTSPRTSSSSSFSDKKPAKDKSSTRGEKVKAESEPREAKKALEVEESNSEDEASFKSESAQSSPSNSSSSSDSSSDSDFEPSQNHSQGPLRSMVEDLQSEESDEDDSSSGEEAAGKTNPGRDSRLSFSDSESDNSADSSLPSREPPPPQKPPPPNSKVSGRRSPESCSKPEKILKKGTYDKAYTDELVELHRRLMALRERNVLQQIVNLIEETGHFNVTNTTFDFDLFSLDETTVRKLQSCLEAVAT
The experiment is described as follows: Thermal Shift Assay. Domain: start/stop M1-A148. The settings on record: Compound concentration 25.0 uM, Protein concentration 2.0 uM.

Experiment [2] has as its target YEATS domain-containing protein 4 (Homo sapiens) (UniProt O95619). Kind of experiment: Thermal Shift Assay. Domain: start/stop V16-K225. The settings on record: Compound concentration 25.0 uM, Protein concentration 2.0 uM.
Another experiment has as its target T2, Peregrin (Homo sapiens) (UniProt P55201).
T2 sequence (whole entry): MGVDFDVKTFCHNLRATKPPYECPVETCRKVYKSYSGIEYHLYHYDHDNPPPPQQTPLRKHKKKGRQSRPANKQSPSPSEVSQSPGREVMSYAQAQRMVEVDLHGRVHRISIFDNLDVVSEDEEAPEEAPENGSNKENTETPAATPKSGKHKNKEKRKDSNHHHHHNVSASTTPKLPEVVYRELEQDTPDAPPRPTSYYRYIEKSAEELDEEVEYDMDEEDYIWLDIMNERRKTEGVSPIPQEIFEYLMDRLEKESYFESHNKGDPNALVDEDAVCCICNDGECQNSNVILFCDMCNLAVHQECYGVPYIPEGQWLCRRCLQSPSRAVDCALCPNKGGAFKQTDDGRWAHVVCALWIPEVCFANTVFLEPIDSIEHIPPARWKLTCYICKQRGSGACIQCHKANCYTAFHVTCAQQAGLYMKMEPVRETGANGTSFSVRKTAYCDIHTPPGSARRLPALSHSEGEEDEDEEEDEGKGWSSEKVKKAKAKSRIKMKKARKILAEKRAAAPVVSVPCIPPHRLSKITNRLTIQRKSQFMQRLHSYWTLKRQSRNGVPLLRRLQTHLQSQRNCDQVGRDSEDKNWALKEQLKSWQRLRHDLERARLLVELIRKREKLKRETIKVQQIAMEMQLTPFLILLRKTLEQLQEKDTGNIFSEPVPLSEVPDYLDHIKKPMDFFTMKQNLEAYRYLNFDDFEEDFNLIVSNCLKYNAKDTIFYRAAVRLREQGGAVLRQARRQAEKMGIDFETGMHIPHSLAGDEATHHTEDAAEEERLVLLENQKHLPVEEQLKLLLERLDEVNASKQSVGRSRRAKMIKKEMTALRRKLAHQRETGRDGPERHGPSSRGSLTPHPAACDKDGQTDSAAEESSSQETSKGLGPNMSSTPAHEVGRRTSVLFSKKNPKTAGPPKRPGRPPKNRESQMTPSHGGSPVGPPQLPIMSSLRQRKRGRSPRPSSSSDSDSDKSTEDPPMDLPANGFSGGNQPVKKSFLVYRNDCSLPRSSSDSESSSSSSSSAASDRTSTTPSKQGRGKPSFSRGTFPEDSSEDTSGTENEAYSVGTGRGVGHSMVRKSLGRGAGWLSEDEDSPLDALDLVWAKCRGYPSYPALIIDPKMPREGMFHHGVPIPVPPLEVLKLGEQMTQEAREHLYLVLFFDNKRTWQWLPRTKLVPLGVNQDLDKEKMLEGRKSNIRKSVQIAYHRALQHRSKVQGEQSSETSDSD
As to conditions: Compound concentration 20.0 uM, Protein concentration 2.0 uM, Result type QC Liability.

Experiment [3] deals with Fibroblast growth factor receptor 3 (Homo sapiens) (UniProt P22607). The settings on record: Compound concentration 20.0 uM, Protein concentration 2.0 uM, Result type QC Liability.
Description: Thermal Shift Assay. Domain: start/stop: P449-E759
Experiment [4] addresses T3, Protein AF-9 (Homo sapiens) (UniProt P42568).
T3 sequence (whole entry): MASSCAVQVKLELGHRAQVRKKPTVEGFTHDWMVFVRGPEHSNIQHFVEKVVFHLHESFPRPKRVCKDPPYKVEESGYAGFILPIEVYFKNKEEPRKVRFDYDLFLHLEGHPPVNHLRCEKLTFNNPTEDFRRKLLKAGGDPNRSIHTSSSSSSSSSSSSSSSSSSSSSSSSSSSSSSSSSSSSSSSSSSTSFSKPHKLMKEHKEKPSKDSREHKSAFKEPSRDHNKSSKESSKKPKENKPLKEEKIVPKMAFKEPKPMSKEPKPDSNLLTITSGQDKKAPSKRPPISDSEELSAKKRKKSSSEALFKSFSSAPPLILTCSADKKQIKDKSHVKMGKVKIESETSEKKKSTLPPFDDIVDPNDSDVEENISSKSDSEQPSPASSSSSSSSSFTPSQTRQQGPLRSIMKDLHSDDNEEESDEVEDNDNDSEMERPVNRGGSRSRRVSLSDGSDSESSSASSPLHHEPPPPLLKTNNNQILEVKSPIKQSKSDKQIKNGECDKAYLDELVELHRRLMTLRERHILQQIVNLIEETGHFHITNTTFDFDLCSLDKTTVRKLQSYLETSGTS
As to conditions: Compound concentration 25.0 uM, Protein concentration 2.0 uM.
Description: Thermal Shift Assay. Domain: start/stop M1-D141

YEATS domain-containing protein 4 (Homo sapiens), sequence (O95619 whole entry, the tested form may be a part): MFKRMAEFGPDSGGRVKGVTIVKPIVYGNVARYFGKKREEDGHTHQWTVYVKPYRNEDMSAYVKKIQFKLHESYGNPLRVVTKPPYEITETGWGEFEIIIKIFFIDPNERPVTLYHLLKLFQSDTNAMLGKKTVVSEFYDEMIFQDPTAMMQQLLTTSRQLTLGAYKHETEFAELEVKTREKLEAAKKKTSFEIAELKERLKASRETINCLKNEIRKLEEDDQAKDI
Fibroblast growth factor receptor 3 (Homo sapiens), sequence (P22607 23-806 limits assumed): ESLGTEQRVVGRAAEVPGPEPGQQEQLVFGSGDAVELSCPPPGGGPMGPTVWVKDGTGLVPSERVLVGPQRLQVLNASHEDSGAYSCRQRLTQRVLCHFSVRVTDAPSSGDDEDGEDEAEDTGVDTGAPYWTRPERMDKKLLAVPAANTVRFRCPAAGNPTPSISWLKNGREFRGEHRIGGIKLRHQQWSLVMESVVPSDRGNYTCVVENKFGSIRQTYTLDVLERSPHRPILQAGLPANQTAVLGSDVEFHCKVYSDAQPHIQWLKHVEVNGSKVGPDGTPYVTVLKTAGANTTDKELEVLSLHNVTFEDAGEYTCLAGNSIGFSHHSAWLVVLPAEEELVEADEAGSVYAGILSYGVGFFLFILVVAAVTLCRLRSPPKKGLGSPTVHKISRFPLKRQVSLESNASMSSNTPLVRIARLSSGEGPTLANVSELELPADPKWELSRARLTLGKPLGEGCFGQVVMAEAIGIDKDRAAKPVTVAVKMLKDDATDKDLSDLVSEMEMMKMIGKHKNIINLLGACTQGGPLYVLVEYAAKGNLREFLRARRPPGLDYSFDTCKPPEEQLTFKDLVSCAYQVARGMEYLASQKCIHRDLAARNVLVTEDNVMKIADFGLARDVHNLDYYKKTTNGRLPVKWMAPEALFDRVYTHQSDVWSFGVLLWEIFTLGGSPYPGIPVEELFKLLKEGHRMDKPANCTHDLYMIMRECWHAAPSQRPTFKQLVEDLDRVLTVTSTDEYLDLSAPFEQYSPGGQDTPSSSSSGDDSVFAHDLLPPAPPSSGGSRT

Take `CN(C)C(=O)c1ccc(-c2cc(C(=O)N[C@@H]3CCc4ccccc43)no2)cc1O`: the ΔTm in experiment [1] is 3.61 c; in experiment [2] it was -0.19 c; on Peregrin (Homo sapiens), -0.349 c; in experiment [3] it was -0.162 c; in experiment [4] it was 5.15 c.
